According to US20150197480A9 (Academia Sinica, priority 2013, published 2015):
pEC50: −log10 of the molar value. Like-named read-outs stand apart in the source and are kept apart here. Values belong to the compound of their own block, whether it stands above or below them.

Tests used:
GLP-1 receptor [1] = biological target: T1, GLP-1 receptor (Rattus norvegicus, UniProt P32301); settings: for cAMP production by compound alone: absence of GLP-1; for intrinsic agonistic or antagonistic activity: summary of studies; for effect on GLP-1 dose-response curve / GLP-1 stimulated cAMP production: FIG. 9A
T1 sequence (P32301 22-463): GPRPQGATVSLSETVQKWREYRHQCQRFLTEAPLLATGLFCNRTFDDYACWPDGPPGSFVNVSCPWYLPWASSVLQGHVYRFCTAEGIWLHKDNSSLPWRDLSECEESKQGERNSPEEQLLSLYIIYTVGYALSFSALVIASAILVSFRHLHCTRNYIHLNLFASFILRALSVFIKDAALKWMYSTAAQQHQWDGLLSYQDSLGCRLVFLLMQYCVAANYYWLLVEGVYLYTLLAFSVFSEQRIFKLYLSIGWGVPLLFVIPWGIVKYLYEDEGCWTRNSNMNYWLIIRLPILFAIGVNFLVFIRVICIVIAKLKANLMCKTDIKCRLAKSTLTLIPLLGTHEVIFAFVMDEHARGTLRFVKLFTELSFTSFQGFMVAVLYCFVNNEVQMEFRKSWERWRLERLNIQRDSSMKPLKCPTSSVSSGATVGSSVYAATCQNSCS
Excerpt: (§1) In the resting stage when the intracellular cAMP is minimal, a large BRET ratio was observed.

GLP-1 = GLP-1 (Homo sapiens, UniProt P01275); test: Limited trypsin digestion of GLP-1 peptide; type: biochemical; settings: free GLP-1 or with galanal b; preliminary observation
Excerpt: This is consistent with the finding that GPCR can exist in multiple active conformations, distinct conformation of the receptor is stabilized by distinct ligand structure and may lead to distinct signaling selectivity (55). […] There are at least two possible mechanisms to account for these observations. […] By binding to and modifying structural conformation of the receptor, the allosteric inhibitor of parturition (PDC 113.824) induces biased signaling when an orthosteric ligand is co-bound to the prostaglandin F2α receptor (56). […] Subtle conformation changes in peptide agonists can lead to selective coupling of the receptor to its downstream signaling pathway. As it has been shown in the case of biased agonist for the type 1 parathyroid hormone receptor (PTH1R) (25) and angiotensin II type 1A receptor ligands (57), subtle structure change of the peptide ligands can profoundly stabilize a distinct conformation of the receptor protein that selectively affects the coupling efficiency of a particular downstream signaling pathway.

GLP-1 receptor [2] = biological target: T2, GLP-1 receptor (Homo sapiens, UniProt P43220); test: Receptor endocytosis assay, U2OS cells co-expressing GLP-1 receptor and β-arrestin2:GFP; type: cell-based; settings: for positive modulation effect on GLP-1 elicited receptor endocytosis in the presence of exendin 9: FIG. 8, plus 1.8 mM of Exendin 9; for Efficacy of GLP-1 to elicit receptor endocytosis: Table 2, printed (100%), GLP-1 only or GLP-1 plus indicated compound
T2 construct: expressed in transfected cells; host or cells: U2OS osteosarcoma cells stably expressing beta-arrestin2:GFP (Norak Biosciences)
Protocol: U2OS osteosarcoma cell line stably expressing a β-arrestin2:GFP fusion protein was obtained from Norak Biosciences (now Molecular Devices, part of MDS Inc., Mississauga, Ontario). […] Extracts were supplied at a concentration of 100 mg/ml in 100% DMSO. […] Plates were washed with PBS twice and sealed and could be stored at 4° C. The final concentration of the extract in the cell plate was 0.1, 0.03 and 0.001 mg/ml, and the final DMSO concentration was 1%.
Images and data of the cells were performed according to reported methods (51), using an ArrayScan® VTI HCS Reader (Cellomics, Inc. Pittsburgh, Pa.). […] A 20×0.4 numerical aperture microscope objective was used for the imaging, 3 fields were imaged per well, and CELLOMICS's Spot Detector BIOAPPLICATION was used to acquire and analyze the images. For these experiments, the Spot Detector BIOAPPLICATION used the Hoechst-labeled nuclei to identify individual cells and then automatically counted and analyzed the GFP-labeled spots associate with each cell. In addition to the number of spots and the sum of their areas and pixel intensities, the BIOAPPLICATION also reports properties of the individual nuclei such as their area.
One unit of activity is defined as the activity that will reach 50% of maximal response in a well of 384-well plate.
In addition, these processes can be visualized from its image (52), thus easily exclude false positive hits.

GLP-1 receptor [3] = biological target: T1, GLP-1 receptor; test: cell-based
Excerpt: as §1

[4] = tested on: cAMP production elicited by glucagon; settings: 0.025 mg/ml; FIG. 11
Excerpt: as §1

[5] = tested on: cAMP production elicited by GIP; settings: 0.025 mg/ml; FIG. 11
Excerpt: as §1

PTHR = biological target: T3, PTHR (Homo sapiens, UniProt Q03431); test: PTH induced receptor endocytosis, PTHR/β-arrestin 2 GFP U2OS cells; type: cell-based; settings: 15 nM of PTH; FIG. 5B
T3 construct: expressed in transfected cells
T3 sequence (Q03431 27-593): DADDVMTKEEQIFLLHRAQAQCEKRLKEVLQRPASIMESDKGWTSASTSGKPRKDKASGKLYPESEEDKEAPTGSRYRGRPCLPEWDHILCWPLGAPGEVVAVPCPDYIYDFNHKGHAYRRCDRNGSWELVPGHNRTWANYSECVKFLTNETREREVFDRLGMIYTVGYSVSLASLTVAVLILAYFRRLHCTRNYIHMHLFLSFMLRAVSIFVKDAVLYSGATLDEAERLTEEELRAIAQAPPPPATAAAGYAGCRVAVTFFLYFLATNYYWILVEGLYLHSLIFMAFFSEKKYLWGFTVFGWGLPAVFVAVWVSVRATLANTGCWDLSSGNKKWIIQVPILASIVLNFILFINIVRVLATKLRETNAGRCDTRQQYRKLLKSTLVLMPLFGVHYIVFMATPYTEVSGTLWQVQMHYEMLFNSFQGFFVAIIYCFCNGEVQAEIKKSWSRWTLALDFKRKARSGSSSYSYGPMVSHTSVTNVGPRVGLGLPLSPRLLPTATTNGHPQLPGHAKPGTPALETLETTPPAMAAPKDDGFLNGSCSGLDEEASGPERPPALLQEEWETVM
Protocol: The GLP-1R/3-arrestin2 GFP (Panel A) or PTHR/β-arrestin 2 GFP (Panel B) double stable expression U2OS cells were plated in 384-well plastic plates at a density of 3000 cell/well and cultured overnight.
U2OS osteosarcoma cell line stably expressing a β-arrestin2:GFP fusion protein was obtained from Norak Biosciences (now Molecular Devices, part of MDS Inc., Mississauga, Ontario). […] Extracts were supplied at a concentration of 100 mg/ml in 100% DMSO. […] The 3 cell assay plates were incubated at room temperature for 60 min before fixation with 2% formaldehyde and labeling of the cell nuclei with 5 μg/mL of the DNA-binding dye Hoechst 33342 (Molecular Probes, Eugene, Oreg.) for 1 hr. Plates were washed with PBS twice and sealed and could be stored at 4° C. The final concentration of the extract in the cell plate was 0.1, 0.03 and 0.001 mg/ml, and the final DMSO concentration was 1%.

T2 sequence (P43220 24-463, species assumed): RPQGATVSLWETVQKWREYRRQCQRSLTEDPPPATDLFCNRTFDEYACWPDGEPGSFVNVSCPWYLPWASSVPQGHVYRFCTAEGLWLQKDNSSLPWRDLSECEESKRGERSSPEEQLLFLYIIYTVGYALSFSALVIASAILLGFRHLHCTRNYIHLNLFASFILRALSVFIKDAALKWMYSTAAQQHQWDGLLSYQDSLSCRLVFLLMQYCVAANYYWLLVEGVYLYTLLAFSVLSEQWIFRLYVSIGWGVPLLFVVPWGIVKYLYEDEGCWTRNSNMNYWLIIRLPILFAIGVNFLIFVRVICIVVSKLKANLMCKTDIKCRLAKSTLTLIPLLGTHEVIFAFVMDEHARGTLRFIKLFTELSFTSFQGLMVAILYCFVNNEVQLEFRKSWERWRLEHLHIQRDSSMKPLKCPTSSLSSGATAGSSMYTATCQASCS
Chain of GLP-1 (P01275 98-127 limits assumed): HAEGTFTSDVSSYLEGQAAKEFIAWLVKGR

melting point: 93 to 94 °C
Structure (SMILES): COC(=O)C1=CC[C@H]2[C@@H](CC[C@H]3C(C)(C)CCC[C@]23C)C(=O)C1 (racemic) [RJ-011, (±)-(6aS,11aS,11bR)-methyl 4,4,11b-trimethyl-7-oxo-2,3,4,4a,5,6,6a,7,8,11,11a,11b-dodecahydro-1H-cyclohepta[a]naphthalene-9-carboxylate]

melting point: 134 to 135 °C
Structure (SMILES): CC1(C)CCC[C@]2(C)[C@H]3CC=C(CO)C[C@@H](O)[C@@H]3CC[C@@H]12 (racemic) [RJ-013, (±)-(6aS,7R,11aS,11bR)-9-(hydroxymethyl)-4,4,11b-trimethyl-2,3,4,4a,5,6,6a,7,8,11,11a,11b-dodecahydro-1H-cyclohepta[a]naphthalen-7-ol]

melting point: 67 to 68 °C
Structure (SMILES): COC(=O)[C@@H]1CC[C@H]2C(CC[C@H]3C(C)(C)CCC[C@]23C)C(=O)C1 (mixture of isomers) [RJ-015, (±)-(6aS,11aS,11bR)-methyl 4,4,11b-trimethyl-7-oxotetradecahydro-1H-cyclo-hepta-[a]naphthalene-9-carboxylate]

concentration needed to stimulate low level cAMP production, fold higher (GLP-1 receptor [1]; RINm5F cells): 1000 fold
Structure (SMILES): COc1cc(C2C(NC(=O)c3ccc(NC(=O)OC(C)(C)C)cc3)(C(=O)O)C(c3ccc(OC(=O)c4cccs4)c(OC)c3)C2(NC(=O)c2ccc(NC(=O)OC(C)(C)C)cc2)C(=O)O)ccc1OC(=O)c1cccs1 (stereo not drawn) [Boc5, reference compound]

Structure (SMILES): CC[C@H](C)[C@H](NC(=O)[C@H](Cc1ccccc1)NC(=O)[C@H](CCC(=O)O)NC(=O)[C@H](CCCCN)NC(=O)[C@H](C)NC(=O)[C@H](C)NC(=O)[C@H](CCC(N)=O)NC(=O)CNC(=O)[C@H](CCC(=O)O)NC(=O)[C@H](CC(C)C)NC(=O)[C@H](Cc1ccc(O)cc1)NC(=O)[C@H](CO)NC(=O)[C@H](CO)NC(=O)[C@@H](NC(=O)[C@H](CC(=O)O)NC(=O)[C@H](CO)NC(=O)[C@@H](NC(=O)[C@H](Cc1ccccc1)NC(=O)[C@@H](NC(=O)CNC(=O)[C@H](CCC(=O)O)NC(=O)[C@H](C)NC(=O)[C@@H](N)Cc1c[nH]cn1)[C@@H](C)O)[C@@H](C)O)C(C)C)C(=O)N[C@@H](C)C(=O)N[C@@H](Cc1c[nH]c2ccccc12)C(=O)N[C@@H](CC(C)C)C(=O)N[C@H](C(=O)N[C@@H](CCCCN)C(=O)NCC(=O)N[C@@H](CCCNC(=N)N)C(=O)NCC(=O)O)C(C)C [GLP-1]
degradation of GLP-1 by limited trypsin digestion (GLP-1): quickly degraded

GLP-1 or forskolin dose response of cAMP (BRET ratio) in presence of inhibitor (GLP-1 receptor [1]; 250 μM): eliminated
Structure (SMILES): Cl.c1ccc(C2CCCC2NC2=NCCCCCCCCCCC2)cc1 (stereo not drawn) [MDL 12330A, reference compound]

melting point: 179 to 180 °C
Structure (SMILES): COC(=O)C1=CCC2C(CO)(CCC3C(C)(C)CCCC32C)C(=O)C1 [RJ-022, (6aR,1aR,11bS)-methyl6a-(hydroxymethyl)-4,4,11b-trimethyl-7-oxo-2,3,4,4a,5,6,6a,7,8,11,11a,11b-dodecahydro-1H-cyclohepta[a]naphthalene-9-carboxylate]

Structure (SMILES): CC1(C)CCC[C@@]2(C)[C@H]1CC[C@@]1(CO)C(O)CC(CO)=CC[C@@H]12 (stereo partly drawn) [compound 2]
positive modulation effect on GLP-1 elicited receptor endocytosis in the presence of exendin 9 (GLP-1 receptor [2]): diminished
Efficacy of GLP-1 to elicit receptor endocytosis (GLP-1 receptor [2]): 82%
pEC50 (GLP-1 receptor [3]): 5.51
effect on cAMP production elicited by glucagon [4]: do not affect
effect on cAMP production elicited by GIP [5]: do not affect
concentration at which enhancement of cAMP production became saturated (GLP-1 receptor [1]; 3 nM of GLP-1, FIG. 9B): 0.03 mg/mL
left shift of dose response curve of GLP-1 (GLP-1 receptor [1]; 0.0025 mg/ml of compound 2): 2.5 orders of magnitude
potentiating effect on GLP-1 stimulated cAMP production in presence of exendin 9 or MDL12330A (GLP-1 receptor [1]; FIG. 10A, 10B): blocked
effect on cAMP production by small molecule agonist Boc5 (GLP-1 receptor [1]; RINm5F cells): little effect
potentiation of the affinity of GLP-1 / GLP-1 dependent cAMP production (GLP-1 receptor [1]; RINm5F cells): up to 1000 fold
potentiation of the affinity of GLP-1 / GLP-1 dependent cAMP production (GLP-1 receptor [1]; RINm5F cells, listed as Compound 2): 1000 fold
cAMP production by compound alone (GLP-1 receptor [1]): not able to induce cAMP production
cAMP production by compound alone (GLP-1 receptor [1]; listed as Compound 2): does not elicit cAMP production in the absence of GLP-1
intrinsic agonistic or antagonistic activity (GLP-1 receptor [1]): without intrinsic agonistic or antagonistic activity

Structure (SMILES): CC1(C)CCC[C@@]2(C)C1CC[C@@]1(C=O)[C@H](O)CC(C=O)=CC[C@@H]12 (stereo partly drawn) [galanal B]
increase of the affinity of GLP-1 (GLP-1 receptor [2]; FIG. 5C, 0.001 mg/ml of galanal B): 4 folds
positive modulation effect on GLP-1 elicited receptor endocytosis in the presence of exendin 9 (GLP-1 receptor [2]): diminished
Efficacy of GLP-1 to elicit receptor endocytosis (GLP-1 receptor [2]): 115.2%
potentiation effect on PTH induced receptor endocytosis (selectivity) (PTHR): did not show similar effect on PTH and its cognate receptor
effect on GLP-1 dose-response curve / GLP-1 stimulated cAMP production (GLP-1 receptor [1]; RINm5F cells): did not significantly affect
effect on GLP-1 dose-response curve / GLP-1 stimulated cAMP production (GLP-1 receptor [1]; RINm5F cells, listed as galanal b): neutral
cAMP production by 3 nM of GLP-1 (GLP-1 receptor [1]; galanal B up to 0.04 mg/ml, FIG. 9B): not changed
intrinsic agonistic or antagonistic activity (GLP-1 receptor [1]): without intrinsic agonistic or antagonistic activity
degradation of GLP-1 by limited trypsin digestion (GLP-1): protects GLP-1 from trypsin degradation

Structure (SMILES): CC1(C)CCC[C@]2(C)[C@H]3CC=C(C=O)C[C@@H](O)[C@]3(C=O)CC[C@@H]12 [galanal B]
EC50 to potentiate receptor endocytosis elicited by 4 nM GLP-1 (GLP-1 receptor [2]; 4 nM GLP-1): 0.24 µg/mL
GLP-1 response potentiated by the fraction (GLP-1 receptor [2]; 0.0002 mg/ml, 4 nM GLP-1, from 20%): 40%
potentiation effect on PTH induced receptor endocytosis (selectivity) (PTHR): selective for GLP-1 but not for PTH
